Percent control (mortality or growth inhibition) and percent control (mortality, anti-feedant effect or growth inhibition) data for nine molecules are collected here from patent US12281095B2, “Pesticidally active diazine-amide compounds” (SYNGENTA CROP PROTECTION AG, priority 2019, dated 2025).

Common to all, as to assay type: in vivo
Assay [1] deals with Plutella xylostella (Diamond Back Moth). The assay is described as follows: Example B5: Plutella xylostella (Diamond Back Moth), artificial diet, 24-well. As to conditions: 192 h, application rate of 200 ppm, eggs, 8 days after infestation, read-out: control in at least one of the two categories (mortality or growth inhibition). As for the experimental part: Example B5: Plutella xylostella (Diamond Back Moth)
24-well microtiter plates with artificial diet were treated with aqueous test solutions prepared from 10′000 ppm DMSO stock solutions by pipetting. After drying, Plutella eggs were pipetted through a plastic stencil onto a gel blotting paper and the plate was closed with it. The samples were assessed for mortality and growth inhibition in comparison to untreated samples 8 days after infestation.

In assay [2] the test system is Spodoptera littoralis (Egyptian Cotton Leaf Worm). As to the kind of experiment: Example B9: Spodoptera littoralis (Egyptian Cotton Leaf Worm), sprayed cotton leaf discs. As to conditions: foliar, 72 h, application rate of 200 ppm, L1 larvae, 3 days after infestation, read-out: control in at least one of the three categories (mortality, anti-feedant or growth inhibition).

The subject of assay [3] is Chilo suppressalis (Striped Rice Stemborer). The assay is described as follows: Example B4: Chilo suppressalis (Striped Rice Stemborer), artificial diet. As to conditions: 144 h, application rate of 200 ppm, L2 larvae, 6 days after infestation, read-out: control in at least one of the three categories (mortality, anti-feedant or growth inhibition). As for the experimental part: Example B4: Chilo suppressalis (Striped Rice Stemborer)
24-well microtiter plates with artificial diet were treated with aqueous test solutions prepared from 10′000 ppm DMSO stock solutions by pipetting. After drying, the plates were infested with L2 larvae (6-8 per well). The samples were assessed for mortality, anti-feeding effect, and growth inhibition in comparison to untreated samples 6 days after infestation. Control of Chilo suppressalis by a test sample is given when at least one of the categories mortality, anti-feedant effect, and growth inhibition is higher than the untreated sample.

SMILES strings stand for the structures. A value given as a limit tells only on which side of the number the result lay.

With `CC(NC(=O)c1cc(C(F)(F)F)cc(C(F)(F)C2CC2)c1)c1nccnc1-c1ccc(C#N)cn1` (stereo not drawn) [P18, N-[1-[3-(5-cyano-2-pyridyl)pyra-zin-2-yl]ethyl]-3-[cyclopropyl(difluoro)methyl]-5-(trifluoromethyl)benzamide], in assay [1], the percent control (mortality or growth inhibition) at 200 ppm was ≥ 80%. Moreover, the percent control (mortality, anti-feedant effect or growth inhibition) at 200 ppm in assay [2] and in assay [3] was ≥ 80% throughout.

On to `CC(NC(=O)c1cc(C(F)(F)F)cc(S(=O)(=O)C(F)(F)F)c1)c1nccnc1-c1ccc(OC(F)F)cn1` (stereo not drawn) [P11, N-[1-[3-[5-(difluoromethoxy)-2-pyridyl]pyrazin-2-yl]ethyl]-3-(trifluoromethyl)-5-(trifluoromethylsulfonyl)benzamide], for which, in assay [1], the percent control (mortality or growth inhibition) at 200 ppm is ≥ 80%. Besides, the percent control (mortality, anti-feedant effect or growth inhibition) at 200 ppm in assay [2] and in assay [3] was ≥ 80% each time.

With `CC(NC(=O)c1cc(C(F)(F)F)cc(C(F)(F)C2CC2)c1)c1nccnc1-c1ccc(OC(F)F)cn1` (stereo not drawn) [P5, 3-[cyclopropyl(difluoro)methyl]-N-[1-[3-[5-(difluoromethoxy)-2-pyridyl]pyrazin-2-yl]ethyl]-5-(trifluoromethyl)benzamide], in assay [1], the percent control (mortality or growth inhibition) at 200 ppm was ≥ 80%. For the same molecule, the percent control (mortality, anti-feedant effect or growth inhibition) at 200 ppm in assay [2] and in assay [3] was ≥ 80% throughout.

On to `CC(NC(=O)c1cc(C(F)(F)F)cc(C(C)(C)C#N)c1)c1nccnc1-c1ccc(OCC(F)(F)F)cn1` (stereo not drawn) [P10, 3-(1-cyano-1-methyl-ethyl)-N-[1-[3-[5-(2,2,2-trifluoroethoxy)-2-pyridyl]pyrazin-2-yl]ethyl]-5-(trifluoromethyl)benzamide], for which the percent control (mortality or growth inhibition) at 200 ppm in assay [1] is ≥ 80%. Moreover, the percent control (mortality, anti-feedant effect or growth inhibition) at 200 ppm in assay [2] and in assay [3] was ≥ 80% throughout.

`CC(NC(=O)c1cc(OC(F)(F)F)cc(C2(C#N)CC2)c1)c1nccnc1-c1ccc(C#N)cn1` (stereo not drawn) [P45, 3-(1-cyanocyclopropyl)-N-[1-[3-(5-cyano-2-pyridyl)pyrazin-2-yl]ethyl]-5-(trifluorometh-oxy)benzamide]: the percent control (mortality or growth inhibition) at 200 ppm in assay [1] is ≥ 80%. For the same molecule, in assay [3], the percent control (mortality, anti-feedant effect or growth inhibition) at 200 ppm was ≥ 80%.

With `CC(NC(=O)c1cc(C(F)(F)F)cc(S(=O)(=O)C(F)(F)F)c1)c1nccnc1-c1ncc(OCC(F)(F)F)cn1` (stereo not drawn) [P12, N-[1-[3-[5-(2,2,2-trifluoroethoxy)pyrimidin-2-yl]pyrazin-2-yl]ethyl]-3-(trifluoromethyl)-5-(trifluoromethylsulfonyl)benzamide], the percent control (mortality or growth inhibition) at 200 ppm in assay [1] is ≥ 80%. Moreover, the percent control (mortality, anti-feedant effect or growth inhibition) at 200 ppm in assay [2] and in assay [3] was ≥ 80% each time.

Take `CC(NC(=O)c1cc(C2CC2)cc(C(F)(F)F)c1)c1nccnc1-c1ccc(C#N)cn1` (stereo not drawn) [P14, N-[1-[3-(5-cyano-2-pyridyl)pyra-zin-2-yl]ethyl]-3-cyclopropyl-5-(trifluoromethyl)benzamide]: the percent control (mortality or growth inhibition) at 200 ppm in assay [1] is ≥ 80%. In addition, the percent control (mortality, anti-feedant effect or growth inhibition) at 200 ppm in assay [2] and in assay [3] was ≥ 80% each time.

`CC(NC(=O)c1cc(C(F)(F)F)cc(S(=O)(=O)C(F)(F)F)c1)c1nccnc1-c1ccc(C#N)cn1` (stereo not drawn) [P15, N-[1-[3-(5-cyano-2-pyridyl)pyra-zin-2-yl]ethyl]-3-(trifluoromethyl)-5-(trifluoromethylsulfonyl)benza-mide]: the percent control (mortality or growth inhibition) at 200 ppm in assay [1] is ≥ 80%. Also, the percent control (mortality, anti-feedant effect or growth inhibition) at 200 ppm in assay [2] and in assay [3] was ≥ 80% throughout.

`CC(NC(=O)c1cc(C(F)(F)F)cc(C(F)(F)C2CC2)c1)c1nccnc1-c1ccc(OCC(F)F)cn1` (stereo not drawn) [P30, 3-[cyclopropyl(difluoro)methyl]-N-[1-[3-[5-(2,2-difluoroethoxy)-2-pyridyl]pyrazin-2-yl]ethyl]-5-(trifluoromethyl)benzamide]: in assay [1], the percent control (mortality or growth inhibition) at 200 ppm was ≥ 80%.
